Test results taken from PubChem BioAssay (NCI).
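Growth conditions: 96-well plates. Treatment: test compound, 48 hours, 5 concentrations. Analysis: linear interpolation between bracketing concentrations; unreached endpoints set to highest concentration. The concentration for full growth arrest is given as TGI.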

Legend:
Experiment in all cases: inhibition of tumour cell growth, NCI panel, 48 h
MDA-N = system: MDA-N
IGROV1 ovarian = system: IGROV1 ovarian
NCI/ADR-RES ovarian = system: NCI/ADR-RES ovarian
SNB-75 CNS = system: SNB-75 CNS
UO-31 renal = system: UO-31 renal
NCI-H522 lung = system: NCI-H522 lung
HL-60(TB) leukemia = system: HL-60(TB) leukemia
OVCAR-5 ovarian = system: OVCAR-5 ovarian
PC-3 prostate = system: PC-3 prostate
ACHN renal = system: ACHN renal
NCI-H460 lung = system: NCI-H460 lung
KM12 colon = system: KM12 colon
OVCAR-8 ovarian = system: OVCAR-8 ovarian
SK-MEL-5 melanoma = system: SK-MEL-5 melanoma
HS 578T breast = system: HS 578T breast

Row | SMILES | TGI (MDA-N) | TGI (IGROV1 ovarian) | TGI (NCI/ADR-RES ovarian) | TGI (SNB-75 CNS) | TGI (UO-31 renal) | TGI (NCI-H522 lung) | TGI (HL-60(TB) leukemia) | TGI (OVCAR-5 ovarian) | TGI (PC-3 prostate) | TGI (ACHN renal) | TGI (NCI-H460 lung) | TGI (KM12 colon) | TGI (OVCAR-8 ovarian) | TGI (SK-MEL-5 melanoma) | TGI (HS 578T breast)
1 | COC(=O)Nc1nc2ccc(Oc3ccc4nc(NC(=O)OC)[nH]c4c3)cc2[nH]1 | > 100 µM | > 54.4 µM | > 100 µM | 2.87 µM | > 100 µM | > 100 µM | 1.96 µM | > 100 µM | > 78.5 µM | > 100 µM | > 100 µM | > 62.5 µM | > 100 µM | 4.19 µM | –
2 | C=C[C@@]1(C)CCC2(O)C(CCC3C2(C)CCC[C@@]3(C)COC(=O)CC(=O)OC)C1 (stereo not given in full) | – | 71.7 µM | – | 48.4 µM | > 100 µM | 32.4 µM | 52.6 µM | 57.8 µM | – | > 100 µM | > 100 µM | 32.6 µM | 55 µM | 32.1 µM | –
3 | CCN(CC)CCNc1ccc2ncn3c4c(OC)ccc(OC)c4c(=O)c1c23 | 25.4 µM | – | 31.1 µM | 23.3 µM | > 100 µM | 44.2 µM | – | – | – | > 100 µM | 31.3 µM | 22.6 µM | 68.5 µM | 31.4 µM | –
4 | C=C(C)C#CC(O)(C(=O)OC1CCN(C)CC1)C(C)C (stereo not given) | > 100 µM | > 100 µM | 85.6 µM | > 100 µM | > 100 µM | > 100 µM | > 100 µM | > 100 µM | > 100 µM | > 100 µM | – | > 100 µM | > 100 µM | > 100 µM | –
5 | Cc1c(/C=N/NC(=S)Nc2cccc(Cl)c2)c(=O)n(-c2ccccc2)n1C | – | 42.4 µM | 33.8 µM | 28.3 µM | 88.7 µM | – | > 100 µM | – | > 100 µM | 37.5 µM | 21.8 µM | > 100 µM | 35.6 µM | > 100 µM | 33.6 µM
6 | CC(=O)OCCOCNC(=S)N/N=C/c1ccc2ccccc2n1 | – | > 100 µM | – | > 100 µM | > 100 µM | 62.7 µM | > 100 µM | 65.5 µM | – | > 100 µM | > 100 µM | > 100 µM | > 100 µM | 60.8 µM | –
7 | NCCC(=O)N[C@H](Cc1cc(O)c(O)c(SCC(NC(=O)CC[C@H](N)C(=O)O)C(=O)NCC(=O)O)c1)C(=O)O (stereo not given in full) | > 50 µM | > 50 µM | > 50 µM | > 50 µM | > 50 µM | > 50 µM | – | > 50 µM | > 50 µM | > 50 µM | > 50 µM | > 50 µM | – | > 50 µM | –
8 | C/C(=N/NC(=O)c1ccncc1)c1ccc(NC(=O)C(=O)Nn2c(=S)[nH]c3ccccc3c2=O)cc1 | – | > 100 µM | > 100 µM | > 100 µM | > 100 µM | > 100 µM | – | > 100 µM | > 100 µM | > 100 µM | > 100 µM | > 100 µM | > 100 µM | > 100 µM | > 100 µM
9 | CC12CCC([C@H](N3CCOCC3)/C1=N\OCCN1CCCC1)C2(C)C (stereo not given in full) | – | > 100 µM | – | > 100 µM | > 100 µM | > 100 µM | > 100 µM | > 100 µM | – | > 100 µM | > 100 µM | > 100 µM | > 100 µM | > 100 µM | –
10 | CC1(c2cccc3c2C2(O)C=CC4(CCC32)OCCO4)OCCO1 (stereo not given) | – | > 100 µM | – | > 100 µM | > 100 µM | > 100 µM | > 100 µM | > 100 µM | – | > 100 µM | > 100 µM | > 100 µM | > 100 µM | > 100 µM | –
11 | CC1=CCC2(C#N)CCC1C2O (stereo not given) | – | > 100 µM | – | > 100 µM | > 100 µM | > 100 µM | > 100 µM | > 100 µM | – | > 100 µM | > 100 µM | > 100 µM | > 100 µM | > 100 µM | –
12 | O=S(=O)(C(=Ic1ccccc1)S(=O)(=O)C(F)(F)C(F)(F)C(F)(F)C(F)(F)F)C(F)(F)C(F)(F)C(F)(F)C(F)(F)F | – | 36.9 µM | 59.8 µM | 28.5 µM | 25.8 µM | 6.09 µM | 62 µM | 30.9 µM | 31.6 µM | 19.3 µM | 32.2 µM | 41.7 µM | – | 27.5 µM | 56.9 µM
13 | COc1cc(C2S/C(=C/c3ccccc3)C(=O)N2c2cc(Cl)ccc2Cl)cc(OC)c1OC (stereo not given) | > 100 µM | 68.3 µM | > 100 µM | – | > 100 µM | 50.4 µM | > 100 µM | – | > 100 µM | > 100 µM | > 100 µM | 38.8 µM | > 100 µM | > 100 µM | –
14 | NC(=O)c1cc(-c2ccc(-n3ccnc3)cc2)n[nH]c1=O | > 100 µM | > 100 µM | – | > 100 µM | > 100 µM | > 100 µM | > 100 µM | > 100 µM | > 100 µM | > 100 µM | > 100 µM | – | > 100 µM | > 100 µM | > 100 µM
15 | COc1ccc(-c2cnoc2-c2ccc(OC)c(OC)c2)cc1OC | – | 9.53 µM | – | 6.53 µM | 41.6 µM | 2.1 µM | 2.88 µM | 36 µM | – | > 74.2 µM | 19.8 µM | 16.9 µM | 40.9 µM | 6.71 µM | –
16 | COc1ccc(N(C)CN(C)c2nc(N(C)C)nc(N(C)C)n2)cc1 | – | > 100 µM | – | > 100 µM | > 100 µM | > 100 µM | > 100 µM | > 100 µM | – | > 100 µM | > 100 µM | > 100 µM | > 100 µM | > 100 µM | –
17 | N=C(N)C1CN(CCc2cnc[nH]2)C(=O)NC1=O (stereo not given) | > 100 µM | > 100 µM | – | > 100 µM | > 100 µM | > 100 µM | > 100 µM | > 100 µM | > 100 µM | > 100 µM | > 100 µM | > 100 µM | > 100 µM | > 100 µM | > 100 µM
18 | CC1(C)OCC2(CO1)CSCCCSCC1(COC(C)(C)OC1)CSCCCSC2 | > 100 µM | > 100 µM | > 100 µM | > 100 µM | > 100 µM | > 100 µM | > 100 µM | > 100 µM | > 100 µM | – | > 100 µM | > 100 µM | > 100 µM | > 100 µM | –
19 | CCCCCCCC(=O)OC[C@@H](C[As](=O)(O)O)OC(=O)CCCCCCC | – | 16.4 µM | – | 29.5 µM | 17.1 µM | 4.83 µM | 21.7 µM | – | – | 25.6 µM | – | – | 37.5 µM | 26.9 µM | –
20 | COC(=O)C1CC(=O)CCC1c1ccccc1 (stereo not given) | – | > 100 µM | – | > 100 µM | > 100 µM | > 100 µM | > 100 µM | > 100 µM | – | > 100 µM | > 100 µM | > 100 µM | > 100 µM | > 100 µM | –
21 | COc1ccc(-c2cc(-c3ccc(Cl)cc3)n(C3OC(CO)C(O)C(O)C3O)c(=S)c2C#N)cc1 (stereo not given) | > 100 µM | > 100 µM | – | > 100 µM | > 100 µM | – | – | 82.2 µM | > 100 µM | > 100 µM | > 100 µM | > 100 µM | > 100 µM | > 100 µM | > 100 µM
22 | C=CCC1C(=O)C(C(=O)OC)N2CCc3c([nH]c4ccccc34)C12 (stereo not given) | – | > 100 µM | – | – | > 100 µM | > 100 µM | > 100 µM | > 100 µM | – | – | – | > 100 µM | > 100 µM | > 100 µM | –
23 | CC1CC(=O)Nc2cc(Cl)ccc2N1C(=O)C1CC1 (stereo not given) | > 100 µM | > 100 µM | – | – | > 100 µM | > 100 µM | > 100 µM | > 100 µM | > 100 µM | > 100 µM | > 100 µM | > 100 µM | > 100 µM | > 100 µM | > 100 µM
24 | C#CCSc1nc(N)c2ncn(C3OC(CO)C(O)C3O)c2n1 (stereo not given) | – | > 100 µM | – | – | > 100 µM | > 100 µM | > 100 µM | – | – | > 100 µM | > 100 µM | > 100 µM | > 100 µM | > 100 µM | –
25 | O=C1CSC(/C(=C/c2ccccc2)c2nc3ccccc3[nH]2)=N1 | – | > 100 µM | – | 50.7 µM | > 100 µM | > 100 µM | > 100 µM | > 100 µM | – | > 100 µM | > 100 µM | > 100 µM | > 100 µM | 38.3 µM | –
26 | Oc1[nH]c2ccccc2c1N=NC(=S)N1CCCCC1 | 15.5 µM | 1.77 µM | 0.635 µM | 6.71 µM | 3.23 µM | 15.5 µM | – | 21.1 µM | 10.3 µM | 5.97 µM | 2.29 µM | 1.62 µM | 1.8 µM | 1.03 µM | –
27 | CSc1ccccc1P(c1ccccc1SC)c1ccccc1SC | > 100 µM | – | > 100 µM | – | > 100 µM | – | – | > 100 µM | – | > 100 µM | – | > 100 µM | > 100 µM | > 100 µM | > 100 µM
28 | O=C(CC(=O)C(=O)Nc1ccccc1)CC(c1ccccc1)c1c(O)c2ccccc2oc1=O (stereo not given) | – | > 100 µM | – | > 100 µM | > 100 µM | > 100 µM | > 100 µM | > 100 µM | – | > 100 µM | > 100 µM | > 100 µM | – | > 100 µM | –
29 | O=C(O)c1c[nH]c2c(=O)[nH]cnc12 | – | > 100 µM | – | > 100 µM | > 100 µM | > 100 µM | > 100 µM | > 100 µM | – | > 100 µM | – | > 100 µM | > 100 µM | > 100 µM | –
